Laboratory results from patent US20070099891A1, “Medicinal compositions and combinations” (priority 2003, published 2007).

Legend:
HepG2 cell = test: LDL binding, uptake and degradation activity in cultured human hepatic cell line HepG2 ([125I]LDL); format: cell-based; details: for Binding Amounts / Degradation Amounts / Uptake Amounts: mean ± standard error, 6 experiments
Protocol: The cultured human hepatic cell line HepG2 cell was purchased from the Dainippon Pharmaceuticals Co. Ltd. (Osaka, Japan). The determinations of LDL binding, uptake and degradation activity were performed according to a prior report (Method in Enzymology, 98, 241-255, 1983). Cells were seeded in a 24 well plate and were incubated in the Dulbecco's modified Eagle/F-12 (DMEM/F-12) medium containing 10% fetal bovine serum and antibiotics at 37° C. for two days. After washing the cells, a DMEM/F-12 medium containing 10% lipoprotein-removed serum, the test substrate and the antibiotics was added and the cells were incubated at 37° C. for 19 hours. After adding [^125I]LDL, the cells were incubated at 37° C. for another 5 hours. The culture supernatant was collected and trichloroacetic acid was added thereto, and then it was statically kept for 30 minutes or more at 4° C. After centrifuging (700×g, 4° C., 15 min.), the supernatant was separated and sodium iodide was added thereto, and further hydrogen peroxide was added. After treating the mixture at room temperature for 5 min., chloroform was added and the mixture was stirred. After centrifuging (700×g, 4° C., 5 min.), the radioactivity in the supernatant was measured by a gamma counter, and then the data thus obtained was evaluated as an amount of degradation of LDL. Separately, after washing the cells thoroughly, a dissociation buffer (50 mM NaCl, 10 mM 2-[4-(2-hydroxyethyl)-1-piperadinyl]ethane sulfonic acid (HEPES, pH 7.4), 10 mg/mL heparin) was added and then the cells were statically kept at 4° C. for 60 min. or more. […] Furthermore, 1N sodium hydroxide was added to the remaining cells and the mixture was reacted for more than 10 min. to dissolve the cells. […] On the other hand, the amounts of non-specific degradation, binding and uptake were evaluated by coexisting an excess of non-labeled LDL on addition of [^125I] LDL, while the amounts of specific degradation, binding and uptake were obtained by subtracting the amounts of non-specific degradation, binding and uptake from the total amounts of degradation, binding and uptake and further calibrating with the amounts of protein.

[1] = test system: rabbit with endogenous hyperlipemia caused by a casein diet load; test: Blood cholesterol lowering action in endogenous hyperlipemia rabbit (casein diet); format: in vivo, New Zealand White rabbit
Protocol: 8 weeks old male New Zealand White rabbit were bred for 12 days with ad libitum water and feeding conditions (rabbit·guinea pig breeding feed RC4, Oriental Yeast Co., Ltd., Tokyo, Japan). Thereafter, the diet was replaced with the casein diet containing 27% casein (Oriental Yeast Co., Ltd., Tokyo, Japan), and then the restricted feeding to the 100 g per 3 kg weight was performed for one week. At this point, the blood was collected via auricular veins and the plasma total cholesterol amounts was measured and then these rabbits were divided such that the mean of the weight and the plasma total cholesterol were equal approximately. […] Each agent was dissolved in propylene glycol containing 0.5% polyoxyethylenesorbitan monooleate (Tween 80) and then these were administered orally. On the other hand, for control group, the solvent (propylene glycol comprising 0.5% Tween 80) was administered orally. At one day after final administration, the blood was collected and plasma total cholesterol was measured and also the lipoprotein was fractioned according to the differential ultracentrifugation method (Nobuhiro, Yamada, Yasushi Sato edit.: Study strategy of Arteriosclerotic+Hyperlipemia, 63-69, 1996, Shujunsha Co. Ltd.), and then the amounts of cholesterol in the fraction of LDL were measured. The amount of total cholesterol in plasma and the amount of cholesterol in LDL fraction were determined by using an automatic biochemical analyzer (Biochemical Analyzer CHEM 1, Bayer Corporation, NY, USA).

LDL receptor protein = test: Expression of LDL receptor protein in liver of endogenous hyperlipemia rabbit (immunoblotting); format: in vivo; details: casein diet
Protocol: For the rabbit used in Example 2, liver was taken out after one day of a final administration of the agent. A homogenizing buffer (20 mM Tris-HCl (pH 8.0), 1 mM CaCl2, 150 mM NaCl, a mix of protease inhibitor) was added to a part of this liver and the mixture was homogenized and centrifuged at 8000×g, 4° C. for 10 min., thereafter the supernatant was ultracentrifuged at […], 4° C. for 60 min. The resulting precipitate was washed by adding the homogenizing buffer and centrifuging at 10,000×g, 4° C. for 30 min., and thereafter was suspended in a suspension buffer (125 mM Tris-maleate (pH 6.8), 1 mM CaCl2, 160 mM NaCl, 1% (w/v) Triton X-100, Protease inhibitor (Complete™, Boehringer Ingelhaim Co., Ltd., Ingelheim, Germany)) to prepare a fraction of the liver membrane. After mixing with a buffer (125 mM Tris-HCl (pH 6.8), 20% (v/v) glycerol, 4% (w/v) sodium dodecyl sulfate (hereinafter, referred to as SDS) and 0.001% (w/v) bromophenol blue), the fraction was subjected to SDS polyacrylamide electrophoresis (using a 7.5% polyacrylamide gel), and the resultant was transferred to a polyvinylidene difluoride (PVDF) membrane and then the amount of LDL receptor protein was evaluated by an immunoblotting using anti-LDL receptor antibody. […]

[2] = single agent; not reduced more even if the dosage is increased; cited from earlier work
[3] = 1 mg/kg orally for 3 weeks, mean ± standard error

## CCCCn1c(=O)c(NC(=O)Nc2c(C(C)C)cc(N)cc2C(C)C)c(-c2cccc(OCCCO)c2)c2cccnc21 [Compd. A, N-[1-butyl-4-[3-[3-(hydroxy)propoxy]phenyl]-1,2-dihydro-2-oxo-1,8-naphthyridine-3-yl]-N′-(2,6-diisopropyl-4-aminophenyl)urea]
HepG2 cell; compound A 0.01 to 1 μM
  amounts of binding, uptake and degradation of LDL (in words): increased
HepG2 cell; single agent 0.01 μM
  Binding Amounts: 85.2 ± 3.6 ng/mg protein
  Degradation Amounts: 927.5 ± 90.0 ng/mg protein
  Uptake Amounts: 852.9 ± 47.3 ng/mg protein
HepG2 cell; single agent 0.1 μM
  Binding Amounts: 90.9 ± 4.1 ng/mg protein
  Degradation Amounts: 1016.8 ± 45.3 ng/mg protein
  Uptake Amounts: 886.4 ± 29.2 ng/mg protein
HepG2 cell; single agent 1 μM
  Binding Amounts: 93.7 ± 2.5 ng/mg protein
  Degradation Amounts: 1126.3 ± 70.3 ng/mg protein
  Uptake Amounts: 1172.2 ± 46.2 ng/mg protein
[1]; [3]
  plasma LDL cholesterol: 52 ± 9 mg/dL
  plasma total cholesterol: 108 ± 5 mg/dL
[1]; 1 mg/kg, compared to control
  plasma total cholesterol lowering action and plasma LDL cholesterol lowering action (in words): significant effects
LDL receptor protein; compound A 1 mg/kg
  amount of the expression of LDL receptor protein in liver (in words, FIG. 1): increased

## CC(C)c1c(C(=O)Nc2ccccc2)c(-c2ccccc2)c(-c2ccc(F)cc2)n1CC[C@@H](O)C[C@@H](O)CC(=O)O [Atorvastatin, atorvastatin, reference compound]
HepG2 cell; single agent 0.1 μM
  Binding Amounts: 81.7 ± 2.1 ng/mg protein
  Degradation Amounts: 800.9 ± 32.5 ng/mg protein
HepG2 cell; single agent 1 μM
  Binding Amounts: 86.3 ± 2.7 ng/mg protein
  Degradation Amounts: 1000.5 ± 62.9 ng/mg protein
HepG2 cell; single agent 10 μM
  Binding Amounts: 95.5 ± 4.0 ng/mg protein
  Degradation Amounts: 1062.3 ± 66.0 ng/mg protein
LDL receptor protein; atorvastatin 1 and 3 mg/kg
  amount of the expression of LDL receptor protein in liver (in words, FIG. 1): increased

## O=C1[C@H](CC[C@H](O)c2ccc(F)cc2)[C@@H](c2ccc(O)cc2)N1c1ccc(F)cc1 [ezetimibe, 1-(4-fluorophenyl)-3(R)-[3-(4-fluorophenyl)-3(S)-hydroxypropyl]-4(S)-(4-hydroxyphenyl)-2-azetidinone]
[2]
  degree of lowering of LDL cholesterol: 15 to 20%
